Test results as given in patent publication US20260000600A1, “PHARMACEUTICAL COMPOSITION FOR PREVENTING OR TREATING INFLAMMATORY DISEASES COMPRISING PEGYLATED BILIRUBIN” (BILIX CO., LTD., priority 2022, published 2026).

How the values were obtained:
[1] = test system: IMQ-induced psoriasis mouse model; experiment: IMQ-induced psoriasis mouse model; type: in vivo, C57BL/6 male mouse; details: 0.05% Clobetasol propionate, 62.5 mg/animal, topical daily; Vehicle 10.50±0.47
Text: An IMQ-induced psoriasis mouse model was created by applying Aldara™ (imiquimod, IMQ) cream to the back skin of an 8-week-old C57BL/6 male mouse a total of 7 times from Day 0 to Day 6. With respect to a normal group in which IMQ cream was not applied (Normal group), as negative control groups, a group in which no additional substances were applied in the process of inducing psoriasis (No Treatment group) and a group in which excipients were applied to the skin (Vehicle group), and as a positive control group, a group in which the previously-approved drug Betabate was applied (Clobetasol propionate group, 0.05% Clobetasol propionate, 62.5 mg/animal), the test substance Brixelle (30 mg/kg) was applied to the skin every day from Day 0, thus to evaluate its effectiveness. Clinical symptoms were evaluated during the process of inducing psoriasis, and skin tissues were secured after the survival test was completed for further analysis.
To quantify the clinical symptoms of psoriasis, for three (3) clinical index items including 1) erythema (redness), 2) scaling and 3) skin thickness, a clinical score was measured on a scale out of 4 (modified psoriasis area and severity index, PASI). […] The results of the graph were expressed as mean±SEM. […]

[2] = test system: DNFB-induced contact dermatitis mouse model; experiment: DNFB-induced contact dermatitis mouse model; type: in vivo, C57BL/6 NC/Nga male mice; details: 0.1% Dexamethasone, 62.5 mg/animal, topical daily; Vehicle 0.94±0.01
Text: A DNFB-induced contact dermatitis mouse model was created using 6 to 10-week-old C57BL/6 NC/Nga male mice and Mouse 2, 4 Dinitrofluorobenzene (DNFB). On Days 0 and 1, 0.5% DNFB solution (acetone:olive oil=4:1) was applied to the back skin to sensitize them, and then on Day 7, 0.3% DNFB solution was applied to the ear skin to induce contact dermatitis. With respect to a normal group in which the DNFB solution was not applied (Normal group), as negative control groups, a group in which no additional substances were applied in the process of inducing contact dermatitis (No Treatment group) and a group in which excipients were applied to the skin (Vehicle group), and as a positive control group, a group in which the previously-approved drug Maxidex was applied (Dexamethasone group, 0.1% Dexamethasone, 62.5 mg/animal), the test substance Brixelle (30 mg/kg) was applied to the skin every day from Day 0, thus to evaluate its effectiveness. Clinical symptoms were evaluated during the process of inducing contact dermatitis, and skin tissues were secured after the survival test was completed for further analysis.
Ear thickness was measured to evaluate edema, a clinical symptom of contact dermatitis. […] The results of the graph were expressed as mean±SEM. […]

[3] = test system: HDM-induced atopic dermatitis mouse model; experiment: HDM-induced atopic dermatitis mouse model (2), comparison with approved drugs; type: in vivo, NC/Nga female mice; details: 0.1% Dexamethasone, 62.5 mg/animal
Description: (§1) An HDM-induced atopic dermatitis mouse model was created by applying HDM antigen ointment to the back and ear skin of 6 to 10-week-old NC/Nga female mice a total of 7 times on Days 0, 7, 10, 14, 17, 21 and 24. […] Clinical symptoms were evaluated during the process of inducing atopic dermatitis, and skin tissues were secured after the survival test was completed for further analysis.
(§2) To quantify the clinical symptoms of atopic dermatitis, for four (4) clinical index items including 1) erythema/hemorrhage, 2) scarring/dryness, 3) edema and 4) excoriation/maceration (erosion), a clinical score was measured on a Likert scale out of 3. H&E staining was performed to observe histological changes in the skin for atopic dermatitis, while dihydroethidium (DHE) staining was performed to measure ROS in skin tissues. Further, in order to identify the mast cells and eosinophils infiltrated in the skin tissues, Toluidine blue staining and Congo red staining were performed, respectively. To measure IL-4 and IL-13, which are inflammatory mediators known to be highly related to atopic dermatitis, ELISA was performed on the skin tissues. The results of the graph were expressed as mean±SEM. The statistical analysis was performed using the GraphPad program to confirm statistical significance with the Vehicle group through one-way ANOVA, followed by Dunnett's multiple comparison method (*p<0.05, **p<0.01, ***p<0.001, ****p<0.0001).

[4] = test system: HDM-induced atopic dermatitis mouse model; experiment: HDM-induced atopic dermatitis mouse model (1), dose dependence; type: in vivo, NC/Nga female mice; details: 0.1% Dexamethasone, 62.5 mg/animal
Description: as §1
as §2, with “respectively.” for “respectively. To measure IL-4 and IL-13, which are inflammatory mediators known to be highly related to atopic dermatitis, ELISA was performed on the skin tissues.”

CCC(=O)O[C@]1(C(=O)CCl)[C@@H](C)C[C@H]2[C@@H]3CCC4=CC(=O)C=C[C@]4(C)[C@@]3(F)[C@@H](O)C[C@@]21C [Clobetasol propionate]
clinical score (modified PASI) [1]: 7.25±0.21

C[C@@H]1C[C@H]2[C@@H]3CCC4=CC(=O)C=C[C@]4(C)[C@@]3(F)[C@@H](O)C[C@]2(C)[C@@]1(O)C(=O)CO [Dexamethasone]
thickness of the ear skin [2]: 0.67±0.02
clinical score (atopic dermatitis) ([3]; topical daily from Day 7, Vehicle 9.58±0.64): 3.75±0.99
eosinophil infiltration (Congo red staining) ([3]; Vehicle 40.06±5.95): 10.25±2.56
mast cell infiltration (Toluidine blue staining) ([3]; Vehicle 56.81±1.99): 20.69±5.25
clinical score (atopic dermatitis) ([4]; topical daily from Day 7, Vehicle 9.44±0.77, mean±SEM): 4.90±0.76
eosinophil infiltration (Congo red staining) ([4]; Vehicle 35.50±1.37): 18.88±1.64
mast cell infiltration (Toluidine blue staining) ([4]; Vehicle 52.69±2.19): 27.38±3.19
